Measurements taken from the supplement of paper PMC10307832.

What was measured:
Experiment in all cases: relative viability (nuclei count vs DMSO), 5 days (fraction); higher = more cells survive
A-427 = system: A-427
How it was run: (§1)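 Lung cancer cell lines were seeded in 1536-well plates and dosed by pin tool the next day, with either a single drug or a fixed anchor-drug dose combined with five library-drug doses (not always all listed) spaced in √10 steps. Five days later, one step fixed the cells and stained their nuclei (final 0.05% Triton X-100, 1% formaldehyde, 1 ug/ml Hoechst), and nuclei were counted on 4× images. Relative viability is the nuclei count in treated wells divided by the count in vehicle wells, and each value is the median of duplicate plates.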

HCC-15 = system: HCC-15
How it was run: as §1

HCC-78 = system: HCC-78
How it was run: as §1

HOP-62 = system: HOP-62
How it was run: as §1

LC-2-ad = system: LC-2-ad
How it was run: as §1

LXF-289 = system: LXF-289
How it was run: as §1

NCI-H1734 = system: NCI-H1734
How it was run: as §1

NCI-H1755 = system: NCI-H1755
How it was run: as §1

NCI-H1792 = system: NCI-H1792
How it was run: as §1

NCI-H1915 = system: NCI-H1915
How it was run: as §1

NCI-H1975 = system: NCI-H1975
How it was run: as §1

NCI-H2126 = system: NCI-H2126
How it was run: as §1

NCI-H2228 = system: NCI-H2228
How it was run: as §1

NCI-H2342 = system: NCI-H2342
How it was run: as §1

NCI-H2347 = system: NCI-H2347
How it was run: as §1

NCI-H358 = system: NCI-H358
How it was run: as §1

NCI-H522 = system: NCI-H522
How it was run: as §1

NCI-H647 = system: NCI-H647
How it was run: as §1

PC-3 [JPC-3] = system: PC-3 [JPC-3]
How it was run: as §1

RERF-LC-KJ = system: RERF-LC-KJ
How it was run: as §1

SK-LU-1 = system: SK-LU-1
How it was run: as §1

SW 1573 = system: SW 1573
How it was run: as §1

`COc1nc(C)cnc1NS(=O)(=O)c1cccnc1-c1ccc(-c2nnco2)cc1` [Zibotentan] + N=C(N)NC(=N)NCCc1ccccc1 [Phenformin] (partner 250 µM) was tested, and the relative viability (A-427; first compound 0.08 µM) was 0.38, the relative viability (A-427; first compound 0.253 µM) was 0.39 and the relative viability (A-427; first compound 0.8 µM) was 0.397. For the same molecule, the relative viability (A-427; first compound 2.53 µM) was 0.348, the relative viability (HCC-15; first compound 0.08 µM) was 0.524 and the relative viability (HCC-15; first compound 0.8 µM) was 0.493. For the same molecule, the relative viability (HCC-15; first compound 2.53 µM) was 0.451, the relative viability (HCC-78; first compound 0.08 µM) was 0.778 and the relative viability (HCC-78; first compound 0.253 µM) was 0.598. It also gave a relative viability (HCC-78; first compound 0.8 µM) of 0.581, a relative viability (HCC-78; first compound 2.53 µM) of 0.59 and a relative viability (HOP-62; first compound 0.08 µM) of 0.746. It also gave a relative viability (HOP-62; first compound 0.253 µM) of 0.664, a relative viability (HOP-62; first compound 0.8 µM) of 0.747 and a relative viability (HOP-62; first compound 2.53 µM) of 0.715. The relative viability (LC-2-ad; first compound 0.08 µM) was 0.564, the relative viability (LC-2-ad; first compound 0.8 µM) was 0.689 and the relative viability (LC-2-ad; first compound 2.53 µM) was 0.619. For the same molecule, the relative viability (LXF-289; first compound 0.08 µM) was 0.533, the relative viability (LXF-289; first compound 0.253 µM) was 0.489 and the relative viability (LXF-289; first compound 0.8 µM) was 0.571. It also gave a relative viability (LXF-289; first compound 2.53 µM) of 0.543, a relative viability (NCI-H1734; first compound 0.08 µM) of 0.361 and a relative viability (NCI-H1734; first compound 0.253 µM) of 0.396. It also gave a relative viability (NCI-H1734; first compound 0.8 µM) of 0.381, a relative viability (NCI-H1734; first compound 2.53 µM) of 0.492 and a relative viability (NCI-H1755; first compound 0.08 µM) of 0.658. The relative viability (NCI-H1755; first compound 0.253 µM) was 0.636, the relative viability (NCI-H1755; first compound 0.8 µM) was 0.599 and the relative viability (NCI-H1755; first compound 2.53 µM) was 0.703. For the same molecule, the relative viability (NCI-H1792; first compound 0.08 µM) was 0.424, the relative viability (NCI-H1792; first compound 0.253 µM) was 0.244 and the relative viability (NCI-H1792; first compound 0.8 µM) was 0.355. For the same molecule, the relative viability (NCI-H1792; first compound 2.53 µM) was 0.259, the relative viability (NCI-H1915; first compound 0.08 µM) was 0.399 and the relative viability (NCI-H1915; first compound 0.253 µM) was 0.358. It also gave a relative viability (NCI-H1915; first compound 0.8 µM) of 0.377, a relative viability (NCI-H1915; first compound 2.53 µM) of 0.289 and a relative viability (NCI-H1975; first compound 0.08 µM) of 0.428. For the same molecule, the relative viability (NCI-H1975; first compound 0.253 µM) was 0.398, the relative viability (NCI-H1975; first compound 0.8 µM) was 0.419 and the relative viability (NCI-H1975; first compound 2.53 µM) was 0.413. For the same molecule, the relative viability (NCI-H2126; first compound 0.08 µM) was 0.534, the relative viability (NCI-H2126; first compound 0.8 µM) was 0.518 and the relative viability (NCI-H2126; first compound 2.53 µM) was 0.575. For the same molecule, the relative viability (NCI-H2228; first compound 0.08 µM) was 0.324, the relative viability (NCI-H2228; first compound 0.253 µM) was 0.314 and the relative viability (NCI-H2228; first compound 0.8 µM) was 0.444. The relative viability (NCI-H2228; first compound 2.53 µM) was 0.415, the relative viability (NCI-H2342; first compound 0.08 µM) was 0.782 and the relative viability (NCI-H2342; first compound 0.253 µM) was 0.595. The relative viability (NCI-H2342; first compound 0.8 µM) was 0.603, the relative viability (NCI-H2342; first compound 2.53 µM) was 0.559 and the relative viability (NCI-H2347; first compound 0.253 µM) was 0.434. The relative viability (NCI-H2347; first compound 0.8 µM) was 0.375, the relative viability (NCI-H2347; first compound 2.53 µM) was 0.444 and the relative viability (NCI-H358; first compound 0.08 µM) was 0.288. The relative viability (NCI-H358; first compound 0.253 µM) was 0.134, the relative viability (NCI-H358; first compound 0.8 µM) was 0.328 and the relative viability (NCI-H358; first compound 2.53 µM) was 0.345. It also gave a relative viability (NCI-H522; first compound 0.08 µM) of 0.614, a relative viability (NCI-H522; first compound 0.253 µM) of 0.648 and a relative viability (NCI-H522; first compound 0.8 µM) of 0.672. It also gave a relative viability (NCI-H522; first compound 2.53 µM) of 0.723, a relative viability (NCI-H647; first compound 0.08 µM) of 0.472 and a relative viability (NCI-H647; first compound 0.253 µM) of 0.512. It also gave a relative viability (NCI-H647; first compound 0.8 µM) of 0.37, a relative viability (NCI-H647; first compound 2.53 µM) of 0.531 and a relative viability (PC-3 [JPC-3]; first compound 0.08 µM) of 0.459. The relative viability (PC-3 [JPC-3]; first compound 0.253 µM) was 0.466, the relative viability (PC-3 [JPC-3]; first compound 0.8 µM) was 0.474 and the relative viability (PC-3 [JPC-3]; first compound 2.53 µM) was 0.499. The relative viability (RERF-LC-KJ; first compound 0.08 µM) was 0.423, the relative viability (RERF-LC-KJ; first compound 0.8 µM) was 0.418 and the relative viability (RERF-LC-KJ; first compound 2.53 µM) was 0.447. The relative viability (SK-LU-1; first compound 0.08 µM) was 0.53, the relative viability (SK-LU-1; first compound 0.253 µM) was 0.463 and the relative viability (SK-LU-1; first compound 0.8 µM) was 0.501. It also gave a relative viability (SK-LU-1; first compound 2.53 µM) of 0.503, a relative viability (SW 1573; first compound 0.08 µM) of 0.397 and a relative viability (SW 1573; first compound 0.8 µM) of 0.359. It also gave a relative viability (SW 1573; first compound 2.53 µM) of 0.334.
